Reference: PMC12261321, “Inhibitors of the Bacterioferritin Ferredoxin Complex Dysregulate Iron Homeostasis and Kill and Biofilm-Embedded Cells” (ACS Infectious Diseases, 2025)
“Also recorded” adds a separate entry of the source.

Tested on: A. baumannii 5075
Experiment: Compound intracellular accumulation in A. baumannii 5075
Format: cell-based
Settings: ‡ treatment with 15 µM compound

SMILES | Intracell. Accum, A. baumannii 5075
Cc1cc(Cl)cc(CNc2cccc3c2C(=O)NC3=O)c1O [SB-16-156] | 671 ± 89 nmol/1012 CFU
O=C1NC(=O)c2c(NCc3cc(Br)ccc3O)ccc(Cl)c21 [SB-16-124] | 2626 ± 389 nmol/1012 CFU
CC(C)(C)c1ccc(O)c(CNc2cccc3c2C(=O)NC3=O)c1 [SB-16-53] | 327 ± 17 nmol/1012 CFU
O=C1NC(=O)c2c(NCc3cc(Cl)ccc3O)ccc(Br)c21 [SB-16-51] | 2137 ± 311 nmol/1012 CFU
Cc1cc(Br)cc(CNc2cccc3c2C(=O)NC3=O)c1O [SB-16-106] | 782 ± 11 nmol/1012 CFU

Tested on: P. aeruginosa PAO1
Experiment: Pyoverdin secreted by P. aeruginosa PAO1 (fluorescence)
Format: cell-based
Settings: planktonic cells, 24 h; KM-5–25 80 μM, KM-5–35 60 μM, EB-5–73 40 μM, SB-17–140 80 μM
Method: Dete rmination of pyoverdin secreted by P. aeruginosa PA O 1 . These experiments were conducted as previously reported13 with some modifications. Cells were cultured in modified M63 media (2 g / L ( N H 4)2SO4, 13.6 g/L KH2PO4 (Sigma Aldrich), 2 g/L glucose, 4 g/L cit ric acid, 5 g/ L technical grade casamino acids (B D scientific), 0.24 g/L MgSO4 (Alfa A esar), and 0.025% (w/v) HPMC, pH 7.0 adjusted with KOH) . Starter cultures in LB were diluted to OD600 = 0.0001 and cultured in a sh aker i ncubator (35 °C and 205 rpm) for 24 h, in the absen ce ( control) and in the presence of KM -5- 25 (80 μM), KM-5- 35 (60 μM), EB- 5- 73 (40 μM), and SB-17- 140 (80 μM); al l cell suspensions have 1.5% DMSO. 700 μ L of the culture wer e clarified by centrifugation (16,200 x g, 10 min, 4 °C), diluted 10-fold in PBS and then analyzed by acquiring fluorescence emission spectra (410- 600 nm) with excitation at 400 nm (10 nm slit width) and emission at λ max= 430 nm (10 nm slit width) using an Ag ilent (Cary Eclipse) fluorescen ce sp ectrophotometer. The flu orescen ce intensity of th e treated sample (FI)Tr and that of the untreated control (FI)Un was normalized to the corresponding OD600 and the ratio (FI/OD600)Tr / (F I/ OD600)Un is […]
The determination for each of the compounds was carri ed out in 5 biological replicates. […]

SMILES | pyoverdine secretion, (FI/OD600)Tr/(FI/OD600)Un
O=C1NC(=O)c2c(NCc3cccc(Br)c3O)cccc21 [EB-5-73] | did not secrete more pyoverdine than the untreated control cultures; also recorded: secrete the same amount of pyoverdine as the untreated control
O=C1NC(=O)c2c(NCc3cccc4c3CCN4)cccc21 [SB-17-140] | did not secrete more pyoverdine than the untreated control cultures; also recorded: secrete the same amount of pyoverdine as the untreated control
O=C1NC(=O)c2c(NCc3cc(Cl)ccc3O)cccc21 [KM-5-25, 4-((5-Chloro-2-hydroxybenzyl)amino)isoindoline-1,3-dione] | overproduction of pyoverdine; also recorded: pyoverdine overproduction phenotype
O=C1NC(=O)c2c(NCc3cc(Br)ccc3O)cccc21 [KM-5-35, 4-((5-Bromo-2-hydroxybenzyl)amino)isoindoline-1,3-dione] | overproduction of pyoverdine; also recorded: pyoverdine overproduction phenotype

Tested on: A. baumannii 5075
Experiment: Compound intracellular accumulation in A. baumannii 5075
Format: cell-based
Settings: cells treated with 30 µM compound
Method: Determination of Compound Intracellular Accumulation. These experiments were carri ed out as reported previously,16 with modifications. Starter cultures o f P. aeruginosa PAO1 or A. baumannii 5075 were centrifuged for 10 min at 3148 x g and 4 °C, resuspended in 5 mL of fresh LB, diluted to OD 600 = 0.03 in fresh LB media (250 mL), and then cultured at 35 °C and 220 rpm for 4 h. Th e resultant cul ture was diluted to OD600 = 0.4 in 250 mL LB and centrifuged at 4 °C and 3470 x g for 10 min. The cell pellet was resuspended in 20 mL of PBS and transfer red to a 50 mL conical tube, where it was centrifuged at 4 °C and 3148 x g for 20 min. The cell pellet was resuspended in 15 mL of PBS supplemented with 0.05% (w/v) HPMC and the suspension was divided equally into two new conical tubes. One of th e tubes was treated with 150 µL of DMSO (control), while the second tube was treated with 150 µL of compound in DMSO solution to produce a compound final concentration of 30 µM or 15 µM. The resultant mixtures were incubated at 37 °C and 220 rpm for 15 min, placed on ice for 1 min, and then centrifuged at 3148 x g rpm and 4 °C for 10 min. The cell pellet was resuspended in 7.5 mL of ice -cold PBS and vortexed (10 s, five t imes). 200 µL of the cell suspension was used to plate and enumerate viable cells, and 800 µL of the suspension was lay ered onto 700 µL of chilled silicon oil contained in 1.5 mL Eppendo rf tubes and then centrifuged at 4 °C ( 900 x g) for 10 min, then again at 16,200 x g for 5 min to allow pass ag e of the cell suspension through the silicon oil layer. The aqueous and oil layers were removed, and the cell pellet was washed twice in PBS (800 μ L), each time transferring the cell suspension to a new Eppendorf tube and then centrifuging at 16,200 x g. The cell pellet was lysed in 800 µL methanol by vortexing followed by 10 min incubationat room temperatur e. The lysate suspension was pelleted, the supernatant was transferred to a new Eppendorf tube and then placed into a vacuum concentrator (Eppendorf 5301 Vacufuge) to evaporate the methanol (4 h). The dried […]
cell lysate was resuspend ed in 600 µL of DMSO and centrifuged at 16,200 x g rpm for 5 min at room temperature.
The clarified supernatant was titrated with small volumes of 250 µM compound stock, measuring the fluorescen ce after the addition of each aliquot with the aid of a Cary Eclipse Fluorescence Spectrometer (Agilent). The compound concentration was determined utilizing the standard addition method,17 and compound accumulation is reported as nmol compound/1012 CFU/mL. […]
Eclipse) fluorescen ce sp ectrophotometer. The flu orescen ce intensity of th e treated sample (FI)Tr and that of the untreated control (FI)Un was normalized to the corresponding OD600 and the ratio (FI/OD600)Tr / (F I/ OD600)Un is […]
The determination for each of the compounds was carri ed out in 5 biological replicates.
Determination of Siderophores Secreted by A. baumannii . The chromo azurol S (CAS) solution was prepared as previously reported18 with some modifications. The blue dye solution (0.6 g/L CAS ( ACROS Organics), 100 μM FeCl3·6H2O, and 0.73 g/L hexadecyltrimethylammonium bromide (HDTMA, ACROS Organics) was autoclaved and stored in the dark. The MM9-PIPES buffer solution (3 g/L KH2PO4, 5 g/L NaCl, 10 g/L NH4C l, 32.24 g/L piperazine -1,4-bis-2- ethanesulfonic acid (PIPES , Sigma Aldrich), pH 6.75) was sterilized using a 0.22 µm syringe filter (VWR). Prior to every experimen t, blue dye solution (0.5 mL) was mixed with 4.5 mL of MM9-PIPES solution. An overnight culture of A. baumannii 5075 was diluted to OD600 = 0.0001 with modified M63 media (no citric acid) supplemented with 4 μ M Fe and transferred to a 96-well plate, wh ere it was cul tured for 20

SMILES | Intracell. Accum, A. baumannii 5075
O=C1NC(=O)c2c(NCc3ccccc3O)cccc21 [Analog 11, 4-((2-Hydroxybenzyl)amino)isoindoline-1,3-dione] | 55 ± 15 nmol/1012 CFU
Cc1cccc(CNc2cccc3c2C(=O)NC3=O)c1O [EB-5-70] | 99 ± 15 nmol/1012 CFU
O=C1NC(=O)c2c(NCc3cc(F)ccc3O)ccc(Br)c21 [SB-16-67] | 1173 ± 53 nmol/1012 CFU
O=C1NC(=O)c2c(NCc3cccc(Br)c3O)cccc21 [EB-5-73] | 201 ± 30 nmol/1012 CFU
O=C1NC(=O)c2c(NCc3cc(F)ccc3O)cccc21 [JAG-5-7] | 157 ± 54 nmol/1012 CFU
O=C1NC(=O)c2c(NCc3c(O)cccc3Cl)cccc21 [KM-5-29] | 2614 ±134 nmol/1012 CFU
O=C1NC(=O)c2c(NCc3cccc(Cl)c3O)cccc21 [KM-5-30] | 169 ± 62 nmol/1012 CFU
O=C1NC(=O)c2c(NCc3cccc(F)c3O)cccc21 [EB-5-80] | 44 ± 6 nmol/1012 CFU
O=C1NC(=O)c2c(NCc3cc(Br)c(O)cc3O)cccc21 [SB-16-137] | 86 ± 23 nmol/1012 CFU
Cc1ccc(CNc2cccc3c2C(=O)NC3=O)c(O)c1 [EB-5-69] | 193 ± 33 nmol/1012 CFU
O=C1NC(=O)c2c(NCc3c(O)cccc3F)cccc21 [EB-5-71] | 495 ± 35 nmol/1012 CFU
